Measurements taken from patent US12391674B2, “Heterocyclic compounds for the treatment of epilepsy” (OTSUKA PHARMACEUTICAL CO., LTD., priority 2018, dated 2025).

How the values were obtained:
DBA/2 mice = assay: Audiogenic seizure model; type: in vivo; settings: Mus musculus, DBA/2 mice, oral, auditory stimulation 1 hour after administration, read-out: Seizure suppression
How it was run: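 Male and female DBA/2 mice (3 weeks old, 8/group) dosed orally at 30 mg/kg in 5% gum arabic; 1 h later exposed to 12.6 kHz, 100-110 dB tone for 1 min or until tonic seizure. Maximum seizure score (0–4) recorded; suppression rate graded A (≥90%), B (70–<90%), C (50–<70%).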

ICR mice = assay: Rotarod test (motor coordination); type: in vivo, mouse; settings: oral, rotarod 1 hour after administration
How it was run: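 Motor coordination was assessed in male ICR mice (Japan SLC, Inc., 5-6 weeks old, 8 per group). Animals were first trained to stay for 2 minutes on a rotarod turning at a fixed 15 rpm. One hour after oral dosing, each mouse was placed on a rod accelerating from 4 rpm to 40 rpm over 5 minutes, and latency to fall was recorded for up to 200 seconds. Latencies were expressed relative to the mean of the solvent-treated group.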

With O=C1CCN(c2ccc(Oc3cccc(OC(F)F)c3)cc2)C(=O)N1 [Example 314, 1-{4-[3-(Difluoromethoxy) Phenoxy]Phenyl}Dihydropyrimidine-2,4 (1H,3H)-Dione] as the molecule, how does the inhibition in vivo at 30 mg/kg (DBA/2 mice) read?
The inhibition in vivo at 30 mg/kg was over 90%.

And the Motor dysfunction (ICR mice; dose 30 mg/kg)?
The Motor dysfunction was “A (a coordination disorder of 25% or less)”.

How did the inhibition in vivo at 30 mg/kg (DBA/2 mice) turn out when O=C1CCN(c2ccc(Oc3ccccn3)cc2)C(=O)N1 [Example 316] was run?
The inhibition in vivo at 30 mg/kg was over 90%.

What about the Motor dysfunction (ICR mice; dose 30 mg/kg) of the same molecule?
Its Motor dysfunction is “A (a coordination disorder of 25% or less)”.

Which inhibition in vivo at 30 mg/kg (DBA/2 mice) does the source give for O=C1CCN(c2ccc(Oc3ccccc3)nc2)C(=O)N1 [Example 320] here?
The inhibition in vivo at 30 mg/kg was over 90%.

What about the Motor dysfunction (ICR mice; dose 30 mg/kg) of the same molecule?
The Motor dysfunction was “B (a coordination disorder of more than 25% and 50% or less)”.

Cc1cc(Oc2ccccc2)ccc1N1CCC(=O)NC1=O [Example 323] was tested. Which inhibition in vivo at 39 mg/kg (DBA/2 mice; dose 39 mg/kg) did it give?
Its inhibition in vivo at 39 mg/kg is 70 to 90%.

What about the Motor dysfunction (ICR mice; dose 30 mg/kg) of the same molecule?
Its Motor dysfunction is “B (a coordination disorder of more than 25% and 50% or less)”.

Which results are given for Cc1cc(Oc2ccccc2)ncc1N1CCC(=O)NC1=O [Example 325]?
inhibition in vivo at 30 mg/kg (DBA/2 mice): 70 to 90%; Motor dysfunction (ICR mice; dose 30 mg/kg): A (a coordination disorder of 25% or less)

Which results are given for CC1CC(=O)NC(=O)N1c1ccc(Oc2ccccc2)cc1 (stereo not shown) [Example 328, 6-Methyl-1-(4-Phenoxyphenyl)Dihydropyrimidine-2,4 (1H,3H)-Dione]?
inhibition in vivo at 30 mg/kg (DBA/2 mice): > 90%; Motor dysfunction (ICR mice; dose 30 mg/kg): A (a coordination disorder of 25% or less)

O=C1CCN(c2ccc(Oc3ccccc3)c(F)c2)C(=O)N1 [Example 329] was tested. Which inhibition in vivo at 30 mg/kg (DBA/2 mice) did it give?
The inhibition in vivo at 30 mg/kg was 70 to 90%.

And the Motor dysfunction (ICR mice; dose 30 mg/kg)?
The Motor dysfunction was “A (a coordination disorder of 25% or less)”.

What does the source list for O=C1CCN(c2ccc(Oc3ccccc3F)nc2)C(=O)N1 [Example 331]?
inhibition in vivo at 30 mg/kg (DBA/2 mice): 70 to 90%; Motor dysfunction (ICR mice; dose 30 mg/kg): A (a coordination disorder of 25% or less)

For O=C1CCN(c2ccc(Oc3cccc(F)c3)nc2)C(=O)N1 [Example 332], which inhibition in vivo at 30 mg/kg (DBA/2 mice) is on record?
Its inhibition in vivo at 30 mg/kg is 70 to 90%.

What about the Motor dysfunction (ICR mice; dose 30 mg/kg) of the same molecule?
Its Motor dysfunction is “A (a coordination disorder of 25% or less)”.

For Cc1cc(Oc2cccc(OC(F)(F)F)c2)ccc1N1CCC(=O)NC1=O [Example 336], which inhibition in vivo at 30 mg/kg (DBA/2 mice) is on record?
Its inhibition in vivo at 30 mg/kg is 70 to 90%.

And the Motor dysfunction (ICR mice; dose 30 mg/kg)?
Its Motor dysfunction is “A (a coordination disorder of 25% or less)”.

Which inhibition in vivo at 30 mg/kg (DBA/2 mice) does the source give for CC1(C)CC(=O)NC(=O)N1c1ccc(Oc2ccccc2)cc1 [Example 337, 6,6-Dimethyl-1-(4-Phenoxyphenyl)Dihydropyrimidine-2,4 (1H,3H)-Dione] here?
The inhibition in vivo at 30 mg/kg was over 90%.

And the Motor dysfunction (ICR mice; dose 30 mg/kg)?
The Motor dysfunction was “A (a coordination disorder of 25% or less)”.

For O=C1CCN(c2ccc(Cc3ccc(OC(F)(F)F)cc3)cc2)C(=O)N1 [Example 340], which inhibition in vivo at 30 mg/kg (DBA/2 mice) is on record?
Its inhibition in vivo at 30 mg/kg is 70 to 90%.

And the Motor dysfunction (ICR mice; dose 30 mg/kg)?
The Motor dysfunction was “A (a coordination disorder of 25% or less)”.

How did the inhibition in vivo at 30 mg/kg (DBA/2 mice) turn out when CCC1CC(=O)NC(=O)N1c1ccc(Oc2ccccc2)cc1 (stereo not shown) [Example 343, 6-Ethyl-1-(4-Phenoxyphenyl)Dihydropyrimidine-2,4 (1H,3H)-Dione] was run?
Its inhibition in vivo at 30 mg/kg is over 90%.

And the Motor dysfunction (ICR mice; dose 30 mg/kg)?
Its Motor dysfunction is “A (a coordination disorder of 25% or less)”.

What does the source list for O=C1CCN(c2ccc(Oc3ccccc3)nn2)C(=O)N1 [Example 347, 1-(6-Phenoxypyridazin-3-Yl)Dihydropyrimidine-2,4 (1H,3H)-Dione]?
inhibition in vivo at 30 mg/kg (DBA/2 mice): > 90%; Motor dysfunction (ICR mice; dose 30 mg/kg): A (a coordination disorder of 25% or less)

Which inhibition in vivo at 1 mg/kg (DBA/2 mice; dose 1 mg/kg) does the source give for N#Cc1cc(-c2cnc(Oc3ccccc3)nc2)ccn1 [Example 348] here?
The inhibition in vivo at 1 mg/kg was over 90%.

What about the Motor dysfunction (ICR mice; dose 1 mg/kg) of the same molecule?
The Motor dysfunction was “A (a coordination disorder of 25% or less)”.

Which inhibition in vivo at 3 mg/kg (DBA/2 mice; dose 3 mg/kg) does the source give for N#Cc1ccc(-c2cnc(Oc3ccccc3)nc2)nc1 [Example 349] here?
The inhibition in vivo at 3 mg/kg was over 90%.

What about the Motor dysfunction (ICR mice; dose 3 mg/kg) of the same molecule?
The Motor dysfunction was “A (a coordination disorder of 25% or less)”.

With N#Cc1cccc(-c2cnc(Oc3ccccc3)nc2)n1 [Example 350] as the molecule, how does the inhibition in vivo at 10 mg/kg (DBA/2 mice; dose 10 mg/kg) read?
Its inhibition in vivo at 10 mg/kg is over 90%.

What about the Motor dysfunction (ICR mice; dose 10 mg/kg) of the same molecule?
Its Motor dysfunction is “A (a coordination disorder of 25% or less)”.
